According to PubChem BioAssay AID328 (DTP/NCI, 2004):
Several values for one entry are separate records, joined by “and”; a condition that tells them apart may be missing. Identical values can stand only once. Toxic doses and inconclusive results are not listed.

Test system: BDF1 mice, P388 leukemia ip, median survival T/C
Experiment: NCI In Vivo Anticancer Drug Screen. Data for tumor model P388 Leukemia (intraperitoneal) in B6D2F1 (BDF1) mice
Settings: endpoint: median survival time, higher = longer survival
Method: The antitumor activity of compounds was measured in mice bearing transplantable tumors. Survival or tumor size were measured and the results are expressed as the measurement made in the treated group (T) divided by the measurement made in the vehicle treated control group (C). The tumor model used in this assay is P388 Leukemia (intraperitoneal) in B6D2F1 (BDF1) mice

[1] = dose: 50.0 mg/kg/injection, schedule: Q01DX009 (ip), vehicle: Klucel (hydroxypropylcellulose) (HPC)
[2] = dose: 50.0 mg/kg/injection, schedule: Q04DX003 (ip), vehicle: Klucel (hydroxypropylcellulose) (HPC)
[3] = dose: 100.0 mg/kg/injection, schedule: Q01DX009 (ip), vehicle: Klucel (hydroxypropylcellulose) (HPC)
[4] = dose: 100.0 mg/kg/injection, schedule: Q04DX003 (ip), vehicle: Klucel (hydroxypropylcellulose) (HPC)
[5] = dose: 50.0 mg/kg/injection, schedule: Q01DX009 (ip), vehicle: saline with Tween-80
[6] = dose: 100.0 mg/kg/injection, schedule: Q01DX009 (ip), vehicle: saline with Tween-80
[7] = dose: 200.0 mg/kg/injection, schedule: Q01DX009 (ip), vehicle: saline with Tween-80
[8] = dose: 50.0 mg/kg/injection, schedule: Q04DX003 (ip), vehicle: saline with Tween-80
[9] = dose: 100.0 mg/kg/injection, schedule: Q04DX003 (ip), vehicle: saline with Tween-80
[10] = dose: 200.0 mg/kg/injection, schedule: Q04DX003 (ip), vehicle: saline with Tween-80
[11] = dose: 400.0 mg/kg/injection, schedule: Q04DX003 (ip), vehicle: saline with Tween-80
[12] = dose: 12.5 mg/kg/injection, schedule: Q01DX009 (ip), vehicle: saline with Tween-80
[13] = dose: 25.0 mg/kg/injection, schedule: Q01DX009 (ip), vehicle: saline with Tween-80
[14] = dose: 25.0 mg/kg/injection, schedule: Q04DX003 (ip), vehicle: saline
[15] = dose: 100.0 mg/kg/injection, schedule: Q04DX003 (ip), vehicle: saline
[16] = dose: 200.0 mg/kg/injection, schedule: Q01DX009 (ip), vehicle: Klucel (hydroxypropylcellulose) (HPC)
[17] = dose: 400.0 mg/kg/injection, schedule: Q04DX003 (ip), vehicle: Klucel (hydroxypropylcellulose) (HPC)
[18] = dose: 100.0 mg/kg/injection, schedule: Q01DX009 (ip), vehicle: saline
[19] = dose: 200.0 mg/kg/injection, schedule: Q01DX009 (ip), vehicle: saline
[20] = dose: 400.0 mg/kg/injection, schedule: Q01DX009 (ip), vehicle: saline

COc1cccc2c1C(=O)c1c(O)c3c(c(O)c1C2=O)C[C@@](O)(C(C)=O)C[C@@H]3OC1CC(N(C)C)C(O)C(C)O1 (some centres undefined)
T/C (dose: 3.46 mg/kg/injection, schedule: Q04DX003 (ip), vehicle: water): 161 % of control
T/C (dose: 5.76 mg/kg/injection, schedule: Q04DX003 (ip), vehicle: water): 167 % of control
T/C (dose: 9.6 mg/kg/injection, schedule: Q04DX003 (ip), vehicle: water): 184 % of control
T/C (dose: 16.0 mg/kg/injection, schedule: Q04DX003 (ip), vehicle: water): 110 % of control

N#CC(C#N)=Cc1ccc(Cl)c(Cl)c1
T/C (dose: 25.0 mg/kg/injection, schedule: Q01DX009 (ip), vehicle: Klucel (hydroxypropylcellulose) (HPC)): 115 % of control
T/C [1]: 100 % of control
T/C [2]: 100 % of control
T/C [3]: 120 % of control
T/C [4]: 100 % of control

CC1SCC(=O)N1c1nccs1 (centres undefined)
T/C [5]: 99 % of control
T/C [6]: 100 % of control
T/C [7]: 102 % of control

O=NN(CCCl)C(=O)c1cc(Cl)cc(Cl)c1
T/C (dose: 25.0 mg/kg/injection, schedule: Q04DX003 (ip), vehicle: saline with Tween-80): 104 % of control
T/C [8]: 104 % of control
T/C [9]: 100 % of control and 118 % of control
T/C [10]: 100 % of control and 104 % of control
T/C [11]: 100 % of control

COc1cc(OC)c(OC)cc1/C=N/Nc1ccc(C(=O)O)cc1
T/C [9]: 105 % of control
T/C [10]: 100 % of control
T/C [11]: 110 % of control

NC(CSC(c1ccccc1)(c1ccccc1)c1ccc(Br)cc1)C(=O)O (centres undefined)
T/C (dose: 5.0 mg/kg/injection, schedule: Q04DX003 (ip), vehicle: Klucel (hydroxypropylcellulose) (HPC)): 118 % of control
T/C (dose: 6.25 mg/kg/injection, schedule: Q01DX009 (ip), vehicle: saline with Tween-80): 190 % of control
T/C [12]: 245 % of control
T/C [13]: 270 % of control
T/C [14]: 165 % of control
T/C (dose: 30.0 mg/kg/injection, schedule: Q04DX003 (ip), vehicle: Klucel (hydroxypropylcellulose) (HPC)): 154 % of control
T/C (dose: 45.0 mg/kg/injection, schedule: Q04DX003 (ip), vehicle: other): 166 % of control
T/C [8]: 176 % of control
T/C (dose: 50.0 mg/kg/injection, schedule: Q04DX003 (ip), vehicle: saline): 204 % of control and 210 % of control
T/C (dose: 65.0 mg/kg/injection, schedule: Q04DX003 (ip), vehicle: other): 183 % of control
T/C [6]: 100 % of control
T/C (dose: 100.0 mg/kg/injection, schedule: Q04DX003 (ip), vehicle: other): 170 % of control
T/C [9]: 185 % of control
T/C [15]: 230 % of control
T/C (dose: 150.0 mg/kg/injection, schedule: Q04DX003 (ip), vehicle: other): 250 % of control
T/C [10]: 100 % of control

COc1ccc(P(=S)(S)c2ccc(OC)cc2)cc1
T/C [3]: 100 % of control
T/C (dose: 300.0 mg/kg/injection, schedule: Q01DX009 (ip), vehicle: Klucel (hydroxypropylcellulose) (HPC)): 95 % of control

CC(=O)C(C(=O)Nc1ccccc1)c1cc(NS(=O)(=O)c2ccccc2)ccc1O (centres undefined)
T/C (dose: 100.0 mg/kg/injection, schedule: Q01DX001 (ip), vehicle: saline with Tween-80): 90 % of control
T/C (dose: 200.0 mg/kg/injection, schedule: Q01DX001 (ip), vehicle: saline with Tween-80): 95 % of control
T/C (dose: 400.0 mg/kg/injection, schedule: Q01DX001 (ip), vehicle: saline with Tween-80): 86 % of control

COC(=O)c1nc2c(C)nc(N(C)C)nc2[nH]c1=O
T/C [9]: 101 % of control
T/C [10]: 107 % of control
T/C [11]: 100 % of control

CC(=O)NNC(=O)c1ccccc1
T/C (dose: 12.0 mg/kg/injection, schedule: Q04DX003 (ip), vehicle: Klucel (hydroxypropylcellulose) (HPC)): 104 % of control
T/C (dose: 25.0 mg/kg/injection, schedule: Q04DX003 (ip), vehicle: Klucel (hydroxypropylcellulose) (HPC)): 100 % of control
T/C [1]: 87 % of control
T/C [2]: 104 % of control
T/C (dose: 75.0 mg/kg/injection, schedule: Q01DX009 (ip), vehicle: Klucel (hydroxypropylcellulose) (HPC)): 105 % of control
T/C (dose: 75.0 mg/kg/injection, schedule: Q04DX003 (ip), vehicle: Klucel (hydroxypropylcellulose) (HPC)): 100 % of control
T/C [3]: 87 % of control
T/C [4]: 90 % of control
T/C (dose: 150.0 mg/kg/injection, schedule: Q01DX009 (ip), vehicle: Klucel (hydroxypropylcellulose) (HPC)): 110 % of control
T/C [16]: 91 % of control
T/C (dose: 200.0 mg/kg/injection, schedule: Q04DX003 (ip), vehicle: Klucel (hydroxypropylcellulose) (HPC)): 95 % of control and 100 % of control
T/C [17]: 109 % of control and 118 % of control

CCC1CC2CN(CCc3c([nH]c4ccccc34)C(C(=O)OC)(c3cc4c(cc3OC)N(C)C3C(O)(C(=O)OC)C(OC(C)=O)C5(CC)C=CCN6CCC43C65)C2)C1 (centres undefined)
T/C (dose: 0.06 mg/kg/injection, schedule: Q01DX009 (ip), vehicle: water): 90 % of control
T/C (dose: 0.12 mg/kg/injection, schedule: Q01DX009 (ip), vehicle: water): 90 % of control and 100 % of control
T/C (dose: 0.25 mg/kg/injection, schedule: Q01DX009 (ip), vehicle: water): 95 % of control and 100 % of control
T/C (dose: 0.5 mg/kg/injection, schedule: Q01DX009 (ip), vehicle: water): 90 % of control and 100 % of control
T/C (dose: 1.0 mg/kg/injection, schedule: Q01DX009 (ip), vehicle: water): 90 % of control and 95 % of control and 100 % of control
T/C (dose: 2.0 mg/kg/injection, schedule: Q01DX009 (ip), vehicle: water): 90 % of control and 95 % of control
T/C (dose: 4.0 mg/kg/injection, schedule: Q01DX009 (ip), vehicle: water): 100 % of control
T/C (dose: 8.0 mg/kg/injection, schedule: Q01DX009 (ip), vehicle: water): 100 % of control and 90 % of control

CC1CN1c1nc(N2CC2C)nc(N2CC2C)n1 (centres undefined)
T/C (dose: 3.0 mg/kg/injection, schedule: Q01DX009 (ip), vehicle: saline): 104 % of control
T/C (dose: 3.0 mg/kg/injection, schedule: Q04DX003 (ip), vehicle: saline): 109 % of control
T/C (dose: 6.0 mg/kg/injection, schedule: Q01DX009 (ip), vehicle: saline): 112 % of control
T/C (dose: 6.0 mg/kg/injection, schedule: Q04DX003 (ip), vehicle: saline): 109 % of control
T/C (dose: 12.0 mg/kg/injection, schedule: Q04DX003 (ip), vehicle: saline): 114 % of control
T/C (dose: 12.5 mg/kg/injection, schedule: Q04DX003 (ip), vehicle: saline): 120 % of control

O=C(CCN1CCCCC1)c1ccccc1
T/C (dose: 12.5 mg/kg/injection, schedule: Q01DX009 (ip), vehicle: saline): 89 % of control
T/C (dose: 25.0 mg/kg/injection, schedule: Q01DX009 (ip), vehicle: saline): 95 % of control
T/C [14]: 95 % of control

CN(C)C(=O)c1cccc(N)c1
T/C [18]: 100 % of control
T/C [19]: 95 % of control
T/C [20]: 100 % of control

CC(N)C(=O)NCC(=O)NCC(=O)O (centres undefined)
T/C [18]: 95 % of control
T/C [15]: 104 % of control
T/C [19]: 104 % of control
T/C (dose: 200.0 mg/kg/injection, schedule: Q04DX003 (ip), vehicle: saline): 95 % of control
T/C [20]: 100 % of control
T/C (dose: 400.0 mg/kg/injection, schedule: Q04DX003 (ip), vehicle: saline): 95 % of control

Clc1ccc(CNc2ncnc3[nH]ncc23)cc1Cl
T/C [12]: 100 % of control
T/C [13]: 100 % of control
T/C [5]: 100 % of control

O=c1c2oc3ccccc3c2cnn1CO
T/C [6]: 90 % of control
T/C [7]: 116 % of control

CCOc1ccc(S(=O)(=O)c2ccc(C)cc2)c2c1no[n+]2[O-]
T/C (dose: 15.0 mg/kg/injection, schedule: Q01DX009 (ip), vehicle: saline with Tween-80): 102 % of control

O=[N+]([O-])c1ccc(-n2[nH]nnc2=S)cc1
T/C [8]: 107 % of control
T/C [9]: 104 % of control
T/C [11]: 95 % of control

CCCCCCCCOc1cc(OC(C)=O)c2c(ccc3ccccc32)c1
T/C [9]: 88 % of control
T/C [10]: 87 % of control
T/C [11]: 88 % of control

CCOC(=O)C(=O)Cc1sccc1[N+](=O)[O-]
T/C [3]: 105 % of control
T/C [4]: 86 % of control
T/C [16]: 100 % of control
T/C (dose: 400.0 mg/kg/injection, schedule: Q01DX009 (ip), vehicle: Klucel (hydroxypropylcellulose) (HPC)): 105 % of control
T/C [17]: 91 % of control
